Here are results for 22 molecules from paper PMC6273584, “Synthesis of Thiazolo[5,4-f]quinazolin-9(8H)-ones as Multi-Target Directed Ligands of Ser/Thr Kinases” (Molecules, 2016).

Like-named read-outs stand apart in the source and are kept apart here.

For one assay, the target named is CK1δ/ε. The assay is described as follows: In vitro kinase assay CK1δ/ε, CK1-specific peptide substrate. The assay is classed as biochemical, Porcine. As for the experimental part:
(§1) It was also tested as positive control and its IC50 values were compared to those obtained for the compounds under study.
(§2) Buffer A: MgCl2 (10 mM), 1 mM ethylene glycol-bis(2-aminoethylether)-N,N,N’,N’- tetraacetic acid (EGTA), 1 mM dithiothreitol (DTT), 25 mM Tris-HCl pH 7.5, 50 μg heparin/mL. Buffer B: β-Glycerophosphate (60 mM), 30 mM p-nitrophenylphosphate, 25 mM 3-(N-morpholino) propanesulfonic acid (Mops) (pH 7.2), 5 mM EGTA, 15 mM MgCl2, 1 mM DTT, 0.1 mM sodium vanadate.
(§3) Blank values were substracted and activities expressed in % of the maximal activity, i.e., in the absence of inhibitors. Controls were performed with appropriate dilutions of dimethylsulfoxide (DMSO). IC50 values were calculated from dose-response curves established by Sigma-Plot graphs. The GSK-3, CK1, DYRK1A and CLK1 peptide substrates were obtained from Proteogenix (Oberhausbergen, France).
(§4) CDK5/p25. (Human, recombinant) was prepared as previously described. […] ATP (3000 Ci/mmol; 10 mCi/mL) in a final volume of 30 μL. After 30 min incubation at 30 °C, 25 μL aliquots of supernatant were spotted onto sheets of P81 phosphocellulose paper (Whatman) and 20 s later, the filters were washed eight times (for at least 5 min each time) in a solution of 10 mL phosphoric acid/L of water. The wet filters were counted in the presence of 1 mL ACS (Amersham, UK) scintillation fluid.
CK1δ/ε. (Porcine brain, native) was assayed as described for CDK5/p25 but using the CK1-specific peptide substrate […]pSAYSITA [37].

The next assay deals with T1, CDK5/p25 (Homo sapiens, UniProt Q00535).
T1 construct: made in house
Description: In vitro kinase assay CDK5/p25, [γ-33P]ATP, histone H1 substrate. The assay is classed as biochemical. The protocol: as §1, §2, §3, §4

For the next assay, the target named is DYRK1A (Rattus norvegicus, UniProt Q63470). Description: In vitro kinase assay DYRK1A, Woodtide substrate. Format: biochemical. The protocol:
as §1, §2, §3, §4

Another assay addresses CLK1 (Homo sapiens, UniProt P49759). The assay is described as follows: biochemical.
The target of the next assay is GSK-3α/β. The assay is described as follows: In vitro kinase assay GSK-3α/β, GS-1 peptide substrate. The assay is classed as biochemical, Porcine. As for the experimental part:
as §1, §2, §3, §4
GSK-3α/β. (Porcine brain, native) was assayed, as described for CDK5/p25 but in buffer A and using a GSK-3 specific substrate (GS-1: […]pSEDEEE) (pS stands for phosphorylated serine).

Where [1] appears, read: 15 μM ATP, 30 min, 30 °C, triplicate, <50% inhibition at 10 μM = IC50 >10 μM.

CLK1, sequence (P49759 whole entry): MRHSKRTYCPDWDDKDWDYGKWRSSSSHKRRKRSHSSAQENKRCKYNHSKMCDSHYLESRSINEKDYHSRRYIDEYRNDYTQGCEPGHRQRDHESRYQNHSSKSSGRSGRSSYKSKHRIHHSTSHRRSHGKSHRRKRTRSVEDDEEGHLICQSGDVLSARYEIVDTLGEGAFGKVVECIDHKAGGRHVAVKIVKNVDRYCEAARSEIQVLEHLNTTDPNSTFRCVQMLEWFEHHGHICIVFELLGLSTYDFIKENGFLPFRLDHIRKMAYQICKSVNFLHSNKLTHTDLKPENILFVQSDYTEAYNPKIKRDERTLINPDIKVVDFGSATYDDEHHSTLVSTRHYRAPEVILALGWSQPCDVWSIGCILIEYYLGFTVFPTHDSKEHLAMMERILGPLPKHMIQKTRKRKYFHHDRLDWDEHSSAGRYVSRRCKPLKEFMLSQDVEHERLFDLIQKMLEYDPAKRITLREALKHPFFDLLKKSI
T1 sequence (Q00535 whole entry): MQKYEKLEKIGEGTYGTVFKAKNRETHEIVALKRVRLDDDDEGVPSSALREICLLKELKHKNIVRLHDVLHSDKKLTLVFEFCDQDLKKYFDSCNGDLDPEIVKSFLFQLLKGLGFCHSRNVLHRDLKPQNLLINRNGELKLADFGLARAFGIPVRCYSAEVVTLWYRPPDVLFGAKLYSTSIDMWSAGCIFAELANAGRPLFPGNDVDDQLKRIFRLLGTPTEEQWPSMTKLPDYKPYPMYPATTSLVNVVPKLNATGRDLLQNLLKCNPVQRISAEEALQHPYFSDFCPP
T1 sequence (Q15078 99-307 partner limits assumed): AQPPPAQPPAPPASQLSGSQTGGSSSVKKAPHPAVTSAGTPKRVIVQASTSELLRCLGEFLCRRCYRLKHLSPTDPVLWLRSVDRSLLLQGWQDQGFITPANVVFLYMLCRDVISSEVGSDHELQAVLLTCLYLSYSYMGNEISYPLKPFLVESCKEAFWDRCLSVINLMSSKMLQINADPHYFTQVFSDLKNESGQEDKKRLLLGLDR

As for `N#Cc1nc2ccc3ncn(C4CC4)c(=O)c3c2s1` [Compound 11a, 8-Cyclopropyl-9-oxo-8,9-dihydrothiazolo[5,4-f]quinazoline-2-carbonitrile], the IC50 at CK1δ/ε (setting [1]) was more than 10 µM; at CDK5/p25 it was more than 10 µM; at DYRK1A it was 3.3 µM; at CLK1, 1.1 µM; at GSK-3α/β, 3.3 µM.
For `COCCn1cnc2ccc3nc(C#N)sc3c2c1=O` [Compound 11b, 8-(2-Methoxyethyl)-9-oxo-8,9-dihydrothiazolo[5,4-f]quinazoline-2-carbonitrile], the half-inhibitory concentration (IC50) was more than 10 µM on CK1δ/ε (setting [1]); more than 10 µM at CDK5/p25; 7.8 µM against DYRK1A; 4.1 µM against CLK1; not below 10 µM against GSK-3α/β (setting [1]).
As for `COCCCn1cnc2ccc3nc(C#N)sc3c2c1=O` [Compound 11c, 8-(3-Methoxypropyl)-9-oxo-8,9-dihydrothiazolo[5,4-f]quinazoline-2-carbonitrile], the IC50 at CK1δ/ε (setting [1]) is more than 10 µM; against CDK5/p25, more than 10 µM; at DYRK1A, 7.7 µM; on CLK1, 1.3 µM; at GSK-3α/β, 1.2 µM.
As to `COC(=N)c1nc2ccc3ncn(C4CC4)c(=O)c3c2s1` [Compound 12a, Methyl 8-cyclopropyl-9-oxo-8,9-dihydrothiazolo[5,4-f]quinazoline-2-carbimidate], the IC50 was more than 10 µM against CK1δ/ε (setting [1]); 3.9 µM against CDK5/p25; 0.091 µM at DYRK1A (read-out: DYRK1A IC50); 0.031 µM on CLK1; 0.082 µM at GSK-3α/β.
For the molecule `COCCCn1cnc2ccc3nc(C(=N)OC)sc3c2c1=O` [Compound 12c, Methyl 8-(3-methoxypropyl)-9-oxo-8,9-dihydrothiazolo[5,4-f]quinazoline-2-carbimidate], the IC50 against CK1δ/ε (setting [1]) was more than 10 µM; at CDK5/p25 it was more than 10 µM; against DYRK1A, 0.32 µM; on CLK1, 0.21 µM; at GSK-3α/β, 0.12 µM.
For the molecule `COC(=N)c1nc2ccc3ncn(C(C)C)c(=O)c3c2s1` [Compound 12d, Methyl 8-isopropyl-9-oxo-8,9-dihydrothiazolo[5,4-f]quinazoline-2-carbimidate], the concentration for half-maximal inhibition (IC50) at CK1δ/ε was 5.4 µM; against CDK5/p25, 3 µM; against DYRK1A it was 0.14 µM; against CLK1, 0.16 µM; against GSK-3α/β it was 0.041 µM.
With `COC(=N)c1nc2ccc3ncn(C4CCCC4)c(=O)c3c2s1` [Compound 12e, Methyl 8-cyclopentyl-9-oxo-8,9-dihydrothiazolo[5,4-f]quinazoline-2-carbimidate], the concentration for half-maximal inhibition (IC50) against CK1δ/ε (setting [1]) was more than 10 µM; against CDK5/p25, 4.9 µM; against DYRK1A it was 0.072 µM; on CLK1 it was 0.29 µM; against GSK-3α/β, 0.028 µM.
Taken in the same sequence, the figures for `COC(=N)c1nc2ccc3ncn(C4CCC4)c(=O)c3c2s1` [Compound 12f, Methyl 8-cyclobutyl-9-oxo-8,9-dihydrothiazolo[5,4-f]quinazoline-2-carbimidate] were more than 10 µM, more than 10 µM, 0.13 µM, 0.091 µM and 0.16 µM.
For `COC(=N)c1nc2ccc3ncn(C4CCCCC4)c(=O)c3c2s1` [Compound 12g, Methyl 8-cyclohexyl-9-oxo-8,9-dihydrothiazolo[5,4-f]quinazoline-2-carbimidate], the IC50 was more than 10 µM against CK1δ/ε (setting [1]); 1.8 µM against CDK5/p25; 0.17 µM at DYRK1A; 0.38 µM at CLK1; 0.03 µM on GSK-3α/β.
With `COC(=N)c1nc2ccc3ncn(N(C)C)c(=O)c3c2s1` [Compound 12h, Methyl 8-dimethylamino-9-oxo-8,9-dihydrothiazolo[5,4-f]quinazoline-2-carbimidate], the 50% inhibitory concentration (IC50) is more than 10 µM on CK1δ/ε (setting [1]); more than 10 µM against CDK5/p25; 0.5 µM on DYRK1A (read-out: DYRK1A IC50); 0.99 µM against CLK1; 0.3 µM at GSK-3α/β.
As for `COC(=N)c1nc2ccc3ncn(CCN4CCOCC4)c(=O)c3c2s1` [Compound 12j, Methyl 8-(2-morpholinoethyl)-9-oxo-8,9-dihydrothiazolo[5,4-f]quinazoline-2-carbimidate], the IC50 is more than 10 µM on CK1δ/ε (setting [1]); more than 10 µM against CDK5/p25; 0.2 µM against DYRK1A; 0.69 µM at CLK1; 1.2 µM at GSK-3α/β.
Take `COC(=N)c1nc2ccc3ncn(-c4ccc(C)cc4)c(=O)c3c2s1` [Compound 12k, Methyl 8-(p-tolyl)-9-oxo-8,9-dihydrothiazolo[5,4-f]quinazoline-2-carbimidate]: the half-inhibitory concentration (IC50) on CK1δ/ε (setting [1]) was more than 10 µM; on CDK5/p25, more than 10 µM; at DYRK1A it was 0.38 µM; against CLK1 it was 0.88 µM; against GSK-3α/β, 0.51 µM.
Consider `COC(=N)c1nc2ccc3ncn(-c4ccc(OC)cc4)c(=O)c3c2s1` [Compound 12l, Methyl 8-(4-methoxyphenyl)-9-oxo-8,9-dihydrothiazolo[5,4-f]quinazoline-2-carbimidate], for which the half-inhibitory concentration (IC50) against CK1δ/ε (setting [1]) was more than 10 µM; on CDK5/p25, more than 10 µM; at DYRK1A it was 3 µM; against CLK1, 7.9 µM; on GSK-3α/β it was 1.2 µM.
For `COC(=N)c1nc2ccc3ncn(-c4ccc(N(C)C)cc4)c(=O)c3c2s1` [Compound 12m, Methyl 8-(4-dimethylaminophenyl)-9-oxo-8,9-dihydrothiazolo[5,4-f]quinazoline-2-carbimidate], the IC50 at CK1δ/ε (setting [1]), at CDK5/p25, at DYRK1A, against CLK1 and against GSK-3α/β (setting [1]) was more than 10 µM throughout.
Take `COC(=N)c1nc2ccc3ncn(C)c(=O)c3c2s1` [Compound 12n, Methyl 8-methyl-9-oxo-8,9-dihydrothiazolo[5,4-f]quinazoline-2-carbimidate]: the IC50 was more than 10 µM against CK1δ/ε (setting [1]); more than 10 µM at CDK5/p25; 0.18 µM at DYRK1A; 0.08 µM at CLK1; 1.7 µM on GSK-3α/β.
Regarding `N=C(OCc1ccccc1)c1nc2ccc3ncn(C4CC4)c(=O)c3c2s1` [Compound 13a, Benzyl 8-cyclopropyl-9-oxo-8,9-dihydrothiazolo[5,4-f]quinazoline-2-carbimidate], the half-maximal inhibitory concentration (IC50) was more than 10 µM on CK1δ/ε (setting [1]); more than 10 µM against CDK5/p25; 0.06 µM against DYRK1A; 0.06 µM against CLK1; 0.1 µM on GSK-3α/β (setting [1]).
In the case of `COCCn1cnc2ccc3nc(C(=N)OCc4ccccc4)sc3c2c1=O` [Compound 13b, Benzyl 8-(2-methoxyethyl)-9-oxo-8,9-dihydrothiazolo[5,4-f]quinazoline-2-carbimidate], the IC50 against CK1δ/ε (setting [1]) was more than 10 µM; against CDK5/p25 it was more than 10 µM; against DYRK1A it was 0.29 µM; on CLK1 it was 0.59 µM; on GSK-3α/β, 0.69 µM.
Regarding `COCCCn1cnc2ccc3nc(C(=N)OCc4ccccc4)sc3c2c1=O` [Compound 13c, Benzyl 8-(3-methoxypropyl)-9-oxo-8,9-dihydrothiazolo[5,4-f]quinazoline-2-carbimidate], the IC50 against CK1δ/ε (setting [1]) is more than 10 µM; on CDK5/p25, more than 10 µM; on DYRK1A, 0.16 µM; against CLK1 it was 0.48 µM; against GSK-3α/β, 0.11 µM.
Regarding `N=C(OCc1ccccc1)c1nc2ccc3ncn(C4CCCC4)c(=O)c3c2s1` [Compound 13e, Benzyl 8-cyclopentyl-9-oxo-8,9-dihydrothiazolo[5,4-f]quinazoline-2-carbimidate], the 50% inhibitory concentration (IC50) at CK1δ/ε (setting [1]) is more than 10 µM; on CDK5/p25, more than 10 µM; against DYRK1A, 0.062 µM; against CLK1, 0.32 µM; on GSK-3α/β, 0.028 µM.
For the molecule `N=C(OCc1ccccc1)c1nc2ccc3ncn(C4CCC4)c(=O)c3c2s1` [Compound 13f, Benzyl 8-cyclobutyl-9-oxo-8,9-dihydrothiazolo[5,4-f]quinazoline-2-carbimidate], the half-maximal inhibitory concentration (IC50) was more than 10 µM against CK1δ/ε (setting [1]); more than 10 µM against CDK5/p25; 0.059 µM against DYRK1A; 0.071 µM at CLK1; 0.071 µM against GSK-3α/β.
Turning to `CCOC(=N)c1nc2ccc3ncn(C(C)C)c(=O)c3c2s1` [Compound 14d, Ethyl 8-isopropyl-9-oxo-8,9-dihydrothiazolo[5,4-f]quinazoline-2-carboximidoate], the 50% inhibitory concentration (IC50) is more than 10 µM against CK1δ/ε (setting [1]), more than 10 µM against CDK5/p25, 0.37 µM on DYRK1A and 0.34 µM at CLK1.
As to `COc1ccc2c(c1)[nH]c1c(C)nccc12` [Harmine, reference compound], the IC50 against CK1δ/ε was 1.5 µM; at GSK-3α/β (setting [1]) it was more than 10 µM.
